Assay results: patent US10844032B2, “Substituted benzofuran, benzothiophene and indole Mcl-1 inhibitors” (Vanderbilt University, priority 2012, dated 2020)

Target: recombinant Mcl-1 (residues 172-327) (Homo sapiens (Human), UniProt Q07820)
Experiment: Bak peptide fluorescence polarization anisotropy competition assay, Mcl-1
Type: binding
Details: not given

recombinant Mcl-1 (residues 172-327), sequence (Q07820 172-327): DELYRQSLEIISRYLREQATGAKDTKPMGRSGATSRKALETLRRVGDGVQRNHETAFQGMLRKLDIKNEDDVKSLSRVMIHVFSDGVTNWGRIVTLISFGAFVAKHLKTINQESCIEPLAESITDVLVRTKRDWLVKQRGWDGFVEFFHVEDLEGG

Q: With Cc1cc(OCCCc2c(C(=O)NS(=O)(=O)CCNC(=O)c3cn(Cc4ccccc4)c4ccccc34)[nH]c3ccccc23)cc(C)c1Cl [Example 201, N-((2-(1-benzyl-1H-indole-3-carboxamido)ethyl)sulfonyl)-3-(3-(4-chloro-3,5-dimethylphenoxy)propyl)-1H-indole-2-carboxamide] as the molecule, how does the Ki read?
A: Its Ki is 0.101 to 0.299 µM.

Same assay, conditions: Table 2, Ki range; FITC-Bak peptide 10 nM, Mcl-1 14 nM; read-out: Ki for inhibition of Mcl-1

Q: Which Ki does the source give for COC(=O)c1cc(S(=O)(=O)NC(=O)c2[nH]c3cc(Cl)ccc3c2CCCOc2cc(C)c(Cl)c(C)c2)oc1C [Example 264, methyl 5-(N-(6-chloro-3-(3-(4-chloro-3,5-dimethylphenoxy)propyl)-1H-indole-2-carbonyl)sulfamoyl)-2-methylfuran-3-carboxylate] here?
A: Its Ki is at most 0.1 µM.

Q: For Cc1cc(OCCCc2c(C(=O)NS(C)(=O)=O)[nH]c3cccc(Cl)c23)cc(C)c1Cl [Example 51, 4-chloro-3-(3-(4-chloro-3,5-dimethylphenoxy)propyl)-N-(methylsulfonyl)-1H-indole-2-carboxamide], which Ki is on record?
A: The Ki was at most 0.1 µM.

Q: Which Ki does the source give for Cc1cc(OCCCc2c(C(=O)NS(=O)(=O)c3ccccc3)[nH]c3c(-c4ccncc4C(F)(F)F)cccc23)cc(C)c1Cl [Example 104, 3-(3-(4-chloro-3,5-dimethylphenoxy)propyl)-N-(phenylsulfonyl)-7-(3-(trifluoromethyl)pyridin-4-yl)-1H-indole-2-carboxamide] here?
A: Its Ki is at most 0.1 µM.

Q: For Cc1cc(OCCCc2c(C(=O)NS(=O)(=O)c3ccccc3)[nH]c3c(-c4cnccc4C(F)(F)F)cccc23)cc(C)c1Cl [Example 103, 3-(3-(4-chloro-3,5-dimethylphenoxy)propyl)-N-(phenylsulfonyl)-7-(4-(trifluoromethyl)pyridin-3-yl)-1H-indole-2-carboxamide], which Ki is on record?
A: The Ki was at most 0.1 µM.

Q: COCc1nn(C)c(C)c1-c1cccc2c(CCCOc3cc(C)c(Cl)c(C)c3)c(C(=O)NS(=O)(=O)c3ccccc3)[nH]c12 [Example 130, 3-(3-(4-chloro-3,5-dimethylphenoxy)propyl)-7-(3-(methoxymethyl)-1,5-dimethyl-1H-pyrazol-4-yl)-N-(phenylsulfonyl)-1H-indole-2-carboxamide] was tested. Which Ki did it give?
A: Its Ki is at most 0.1 µM.

Q: Which Ki does the source give for Cc1cc(OCCCc2c(C(=O)NS(=O)(=O)c3ccccc3)[nH]c3c(-c4cccn4C)cccc23)cc(C)c1Cl [Example 101, 3-(3-(4-chloro-3,5-dimethylphenoxy)propyl)-7-(1-methyl-1H-pyrrol-2-yl)-N-(phenylsulfonyl)-1H-indole-2-carboxamide] here?
A: Its Ki is at most 0.1 µM.

Q: With Cc1cc(OCCCc2c(C(=O)NS(=O)(=O)c3ccccc3)[nH]c3c(-c4ccnn4C(C)C)cccc23)cc(C)c1Cl [Example 304, 3-(3-(4-chloro-3,5-dimethylphenoxy)propyl)-7-(1-isopropyl-1H-pyrazol-5-yl)-N-(phenylsulfonyl)-1H-indole-2-carboxamide] as the molecule, how does the Ki read?
A: Its Ki is at most 0.1 µM.

Q: COc1nccc(C)c1-c1cccc2c(CCCOc3cc(C)c(Cl)c(C)c3)c(C(=O)NS(=O)(=O)c3ccccc3)[nH]c12 [Example 301, 3-(3-(4-chloro-3,5-dimethylphenoxy)propyl)-7-(2-methoxy-4-methylpyridin-3-yl)-N-(phenylsulfonyl)-1H-indole-2-carboxamide] was tested. Which Ki did it give?
A: The Ki was at most 0.1 µM.

Same assay, conditions: read-out: Ki for inhibition of Mcl-1

Q: Which Ki does the source give for CCc1ccc(CC(=O)NCCS(=O)(=O)NC(=O)c2[nH]c3ccccc3c2CCCOc2cc(C)c(Cl)c(C)c2)cc1 [Example 174, 3-(3-(4-chloro-3,5-dimethylphenoxy)propyl)-N-((2-(2-(4-ethylphenyl)acetamido)ethyl)sulfonyl)-1H-indole-2-carboxamide] here?
A: Its Ki is 0.101 to 0.299 µM.

Q: How did the Ki turn out when CCOc1ccc(Oc2ccc(S(=O)(=O)NC(=O)c3[nH]c4cc(Cl)ccc4c3CCCOc3cc(C)c(Cl)c(C)c3)cc2)cc1 [Example 223, 6-chloro-3-(3-(4-chloro-3,5-dimethylphenoxy)propyl)-N-((4-(4-ethoxyphenoxy)phenyl)sulfonyl)-1H-indole-2-carboxamide] was run?
A: Its Ki is 0.301 to 0.5 µM.

Q: Cc1cc(OCCCc2c(C(=O)NS(=O)(=O)CCOc3ccccc3)[nH]c3ccccc23)cc(C)c1Cl [Example 141, 3-(3-(4-chloro-3,5-dimethylphenoxy)propyl)-N-((2-phenoxyethyl)sulfonyl)-1H-indole-2-carboxamide] was tested. Which Ki did it give?
A: Its Ki is 0.301 to 0.5 µM.

Q: For COc1cccc(OCCCc2c(C(=O)NS(C)(=O)=O)[nH]c3cc(Cl)ccc23)c1 [Example 108, 6-chloro-3-(3-(3-methoxyphenoxy)propyl)-N-(methylsulfonyl)-1H-indole-2-carboxamide], which Ki is on record?
A: Its Ki is 1 to 9.99 µM.

Q: Cc1cc(OCCCc2c(C(=O)NS(=O)(=O)C3CCN(C(=O)C4CCCCC4)CC3)[nH]c3cc(Cl)ccc23)cc(C)c1Cl [Example 212, 6-chloro-3-(3-(4-chloro-3,5-dimethylphenoxy)propyl)-N-((1-(cyclohexanecarbonyl)piperidin-4-yl)sulfonyl)-1H-indole-2-carboxamide] was tested. Which Ki did it give?
A: Its Ki is 0.301 to 0.5 µM.

Q: How did the Ki turn out when O=C(O)c1oc2ccccc2c1CCCc1cccc2ccccc12 [Example 22, 3-(3-(naphthalen-1-yl)propyl)benzofuran-2-carboxylic acid] was run?
A: Its Ki is 10 to 50 µM.

Q: For Cc1ccccc1S(=O)(=O)NC(=O)c1[nH]c2ccccc2c1CCCOc1cc(C)c(Cl)c(C)c1 [Example 137, 3-(3-(4-chloro-3,5-dimethylphenoxy)propyl)-N-(o-tolylsulfonyl)-1H-indole-2-carboxamide], which Ki is on record?
A: The Ki was 0.101 to 0.299 µM.

Q: Which Ki does the source give for CS(=O)(=O)NC(=O)c1[nH]c2cc(C(F)(F)F)ccc2c1CCCOc1cccc2ccccc12 [Example 79, N-(methylsulfonyl)-3-(3-(naphthalen-1-yloxy)propyl)-6-(trifluoromethyl)-1H-indole-2-carboxamide] here?
A: Its Ki is 0.301 to 0.5 µM.

Q: How did the Ki turn out when Cc1cc(OCCCc2c(C(=O)NS(=O)(=O)CCNC(=O)c3ccccn3)[nH]c3ccccc23)cc(C)c1Cl [Example 190, 3-(3-(4-chloro-3,5-dimethylphenoxy)propyl)-N-((2-(picolinamido)ethyl)sulfonyl)-1H-indole-2-carboxamide] was run?
A: The Ki was 0.101 to 0.299 µM.

Q: Which Ki does the source give for CS(=O)(=O)NC(=O)c1[nH]c2ccccc2c1CCCOc1ccc2ccccc2c1 [Example 37, N-(methylsulfonyl)-3-(3-(naphthalen-2-yloxy)propyl)-1H-indole-2-carboxamide] here?
A: Its Ki is 1 to 9.99 µM.

Q: With O=C(NCCS(=O)(=O)NC(=O)c1[nH]c2cc(Cl)ccc2c1CCCOc1cccc2ccccc12)c1ccc2cc[nH]c2c1 [Example 239, N-((2-(1H-indole-6-carboxamido)ethyl)sulfonyl)-6-chloro-3-(3-(naphthalen-1-yloxy)propyl)-1H-indole-2-carboxamide] as the molecule, how does the Ki read?
A: The Ki was 0.301 to 0.5 µM.

Q: O=C(NS(=O)(=O)CCNC(=O)C1CCCCC1)c1[nH]c2cc(Cl)ccc2c1CCCOc1cccc2ccccc12 [Example 228, 6-chloro-N-((2-(cyclohexanecarboxamido)ethyl)sulfonyl)-3-(3-(naphthalen-1-yloxy)propyl)-1H-indole-2-carboxamide] was tested. Which Ki did it give?
A: Its Ki is 0.301 to 0.5 µM.

Q: With Cc1cc(OCCCc2c(C(=O)NS(=O)(=O)CCNC(=O)[C@@H]3Cc4ccccc4N3C)[nH]c3cc(Cl)ccc23)cc(C)c1Cl [Example 238, (S)-6-chloro-3-(3-(4-chloro-3,5-dimethylphenoxy)propyl)-N-((2-(1-methylindoline-2-carboxamido)ethyl)sulfonyl)-1H-indole-2-carboxamide] as the molecule, how does the Ki read?
A: Its Ki is 0.101 to 0.299 µM.

Q: Which Ki does the source give for Cc1cc(OCCCc2c(C(=O)NS(=O)(=O)c3cccc(C(=O)NC4CCOCC4)c3)[nH]c3ccccc23)cc(C)c1Cl [Example 202, 3-(3-(4-chloro-3,5-dimethylphenoxy)propyl)-N-((3-((tetrahydro-2H-pyran-4-yl)carbamoyl)phenyl)sulfonyl)-1H-indole-2-carboxamide] here?
A: The Ki was 0.101 to 0.299 µM.

Q: With O=C(O)c1sc2c(NCc3ccccc3)cccc2c1CCCOc1cccc2ccccc12 [Example 73, 7-(benzylamino)-3-(3-(naphthalen-1-yloxy)propyl)benzo[b]thiophene-2-carboxylic acid] as the molecule, how does the Ki read?
A: The Ki was 1 to 9.99 µM.

Q: For Cc1cc(OCCCc2c(C(=O)NS(=O)(=O)CCNC(=O)C3CCCCC3)n(Cc3cccnc3)c3cc(Cl)ccc23)cc(C)c1Cl [Example 275, 6-chloro-3-(3-(4-chloro-3,5-dimethylphenoxy)propyl)-N-((2-(cyclohexanecarboxamido)ethyl)sulfonyl)-1-(pyridin-3-ylmethyl)-1H-indole-2-carboxamide], which Ki is on record?
A: Its Ki is 0.101 to 0.299 µM.

Q: Cc1cc(OCCCc2c(C(=O)NS(=O)(=O)CCN(C/C=C/c3ccccc3)C/C=C/c3ccccc3)[nH]c3ccccc23)cc(C)c1Cl [Example 203, 3-(3-(4-chloro-3,5-dimethylphenoxy)propyl)-N-((2-(dicinnamylamino)ethyl)sulfonyl)-1H-indole-2-carboxamide] was tested. Which Ki did it give?
A: Its Ki is 0.301 to 0.5 µM.

Q: Which Ki does the source give for O=C(NS(=O)(=O)C1CC1)c1sc2ccccc2c1CCCOc1cccc2ccccc12 [Example 67, N-(cyclopropylsulfonyl)-3-(3-(naphthalen-1-yloxy)propyl)benzo[b]thiophene-2-carboxamide] here?
A: Its Ki is 1 to 9.99 µM.

Q: With Cc1cc(OCCCc2c(C(=O)NS(C)(=O)=O)[nH]c3cccc(C(F)(F)F)c23)cc(C)c1Cl [Example 82, 3-(3-(4-chloro-3,5-dimethylphenoxy)propyl)-N-(methylsulfonyl)-4-(trifluoromethyl)-1H-indole-2-carboxamide] as the molecule, how does the Ki read?
A: The Ki was 0.101 to 0.299 µM.

Q: Which Ki does the source give for Cc1ccc2c(CCCOc3cccc4ccccc34)c(C(=O)O)sc2c1 [Example 9, 6-methyl-3-(3-(naphthalen-1-yloxy)propyl)benzo[b]thiophene-2-carboxylic acid] here?
A: The Ki was 0.501 to 0.999 µM.

Q: CCOc1ccc(Oc2ccc(S(=O)(=O)NC(=O)c3[nH]c4ccccc4c3CCCOc3cc(C)c(Cl)c(C)c3)cc2)cc1 [Example 143, 3-(3-(4-chloro-3,5-dimethylphenoxy)propyl)-N-((4-(4-ethoxyphenoxy)phenyl)sulfonyl)-1H-indole-2-carboxamide] was tested. Which Ki did it give?
A: The Ki was 0.301 to 0.5 µM.

Q: For COc1ccccc1-c1cccc2c(CCCOc3cc(C)c(Cl)c(C)c3)c(C(=O)NS(C)(=O)=O)[nH]c12 [Example 85, 3-(3-(4-chloro-3,5-dimethylphenoxy)propyl)-7-(2-methoxyphenyl)-N-(methylsulfonyl)-1H-indole-2-carboxamide], which Ki is on record?
A: Its Ki is 0.101 to 0.299 µM.

Q: How did the Ki turn out when Cc1cc(OCCCc2c(C(=O)NS(=O)(=O)c3ccc4ccccc4c3)oc3ccccc23)cc(C)c1Cl [Example 27, 3-(3-(4-chloro-3,5-dimethylphenoxy)propyl)-N-(naphthalen-2-ylsulfonyl)benzofuran-2-carboxamide] was run?
A: Its Ki is 1 to 9.99 µM.
